Assay results from patent US20240208992A1, “MACROCYCLES AS CFTR MODULATORS” (Idorsia Pharmaceuticals Ltd, priority 2021, published 2024).

Biological target: human F508del-CFTR (Homo sapiens, UniProt P13569, DEL508-508)
Experiment: F508del-CFTR cell surface expression (corrector activity), DiscoveRx ß-galactosidase complementation chemiluminescence assay in recombinant U2OS cell line;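 note: U2OS cells co-expressing ProLink-tagged F508del-CFTR and a membrane-anchored enzyme acceptor, where more surface CFTR restores β-galactosidase activity measured by chemiluminescence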
Settings: U2OS cells, 16h compound incubation; for EC50: EC50, F508del-CFTR cell surface expression, geomean of several measurements; for Emax: U2OS, in relation to the Emax of the corrector lumacaftor (=100%), arithmetic mean

Chain of human F508del-CFTR (P13569 with tags, fused parts or gaps DEL508-508): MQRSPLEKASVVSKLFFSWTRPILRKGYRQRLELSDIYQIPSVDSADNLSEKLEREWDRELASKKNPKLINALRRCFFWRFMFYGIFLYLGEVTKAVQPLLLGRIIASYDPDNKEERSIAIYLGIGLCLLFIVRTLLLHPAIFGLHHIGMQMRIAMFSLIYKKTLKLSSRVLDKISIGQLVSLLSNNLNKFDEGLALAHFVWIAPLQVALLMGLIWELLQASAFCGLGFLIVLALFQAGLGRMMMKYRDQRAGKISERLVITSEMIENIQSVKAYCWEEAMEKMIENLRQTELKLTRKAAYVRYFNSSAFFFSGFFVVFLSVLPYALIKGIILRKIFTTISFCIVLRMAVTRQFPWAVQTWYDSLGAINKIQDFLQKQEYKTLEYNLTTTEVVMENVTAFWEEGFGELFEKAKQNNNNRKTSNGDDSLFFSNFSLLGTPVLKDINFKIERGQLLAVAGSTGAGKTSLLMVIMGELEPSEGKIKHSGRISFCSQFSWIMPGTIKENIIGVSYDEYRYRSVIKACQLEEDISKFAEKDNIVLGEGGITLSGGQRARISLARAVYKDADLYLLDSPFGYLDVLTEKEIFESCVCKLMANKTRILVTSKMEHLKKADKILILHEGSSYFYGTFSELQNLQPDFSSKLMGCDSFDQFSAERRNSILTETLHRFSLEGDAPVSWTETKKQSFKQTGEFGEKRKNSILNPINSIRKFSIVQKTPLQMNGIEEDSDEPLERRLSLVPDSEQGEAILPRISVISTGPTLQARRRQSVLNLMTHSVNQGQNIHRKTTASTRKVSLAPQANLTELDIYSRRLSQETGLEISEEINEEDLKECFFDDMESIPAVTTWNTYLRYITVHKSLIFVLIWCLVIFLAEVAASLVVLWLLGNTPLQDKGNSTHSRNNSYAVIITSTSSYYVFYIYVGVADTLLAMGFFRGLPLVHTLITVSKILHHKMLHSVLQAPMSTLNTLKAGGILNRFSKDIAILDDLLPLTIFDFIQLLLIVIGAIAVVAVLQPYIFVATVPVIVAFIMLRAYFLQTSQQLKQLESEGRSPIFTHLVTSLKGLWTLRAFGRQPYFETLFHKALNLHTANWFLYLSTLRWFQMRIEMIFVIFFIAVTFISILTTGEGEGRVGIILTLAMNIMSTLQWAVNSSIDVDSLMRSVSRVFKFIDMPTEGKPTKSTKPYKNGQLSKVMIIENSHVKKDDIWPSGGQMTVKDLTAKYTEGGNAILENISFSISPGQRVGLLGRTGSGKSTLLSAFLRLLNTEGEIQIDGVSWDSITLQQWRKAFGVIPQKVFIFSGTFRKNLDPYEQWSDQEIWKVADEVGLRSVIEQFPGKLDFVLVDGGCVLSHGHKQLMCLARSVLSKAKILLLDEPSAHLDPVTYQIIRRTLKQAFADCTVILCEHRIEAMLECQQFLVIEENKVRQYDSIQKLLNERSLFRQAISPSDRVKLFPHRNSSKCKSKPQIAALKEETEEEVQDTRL

Row | EC50 [nM] | Emax [%] | SMILES
1 | 294 | 433 | COc1cc(CCNC(=O)[C@@H]2CC(=O)N(C)[C@@H](CC(C)C)C(=O)N(C)[C@H](Cc3nc(-c4ccc(F)cn4)no3)C(=O)N[C@H](Cc3ccccc3)COc3ccc4cnc(C)cc4c3C(=O)N2)on1 [Example 906, (3S,7S,10R,13R)-13-benzyl-10-((3-(5-fluoropyridin-2-yl)-1,2,4-oxadiazol-5-yl)methyl)-7-isobutyl-N-(2-(3-methoxyisoxazol-5-yl)ethyl)-6,9,20-trimethyl-1,5,8,11-tetraoxo-1,2,3,4,5,6,7,8,9,10,11,12,13,14-tetradecahydro-[1]oxa[4,7,10,14]tetraazacycloheptadecino[16,17-f]isoquinoline-3-carboxamide]
2 | 425 | 454 | Cc1cc2c3c(ccc2cn1)OC[C@@H](Cc1ccccc1)NC(=O)[C@@H](Cc1nc(-c2ccc(F)cn2)no1)N(C)C(=O)[C@H](CC(C)C)N(C)C(=O)C[C@@H](C(=O)NCCn1nnc(C2CC2)n1)NC3=O [Example 907]
3 | 94 | 401 | CC(C)C[C@H]1C(=O)N(C)[C@H](Cc2nc(C(F)(F)F)no2)C(=O)N[C@H](Cc2ccccc2)COc2ccc3ncc(F)cc3c2C(=O)N[C@H](C(=O)NCCc2nc3ncccn3n2)CC(=O)N1C [Example 908, (3S,7S,10R,13R)-N-(2-([1,2,4]triazolo[1,5-a]pyrimidin-2-yl)ethyl)-13-benzyl-20-fluoro-7-isobutyl-6,9-dimethyl-1,5,8,11-tetraoxo-10-((3-(trifluoromethyl)-1,2,4-oxadiazol-5-yl)methyl)-1,2,3,4,5,6,7,8,9,10,11,12,13,14-tetradecahydro-[1]oxa[4,7,10,14]tetraazacycloheptadecino[16,17-f]quinoline-3-carboxamide]
4 | 17 | 430 | COc1cc(CCNC(=O)[C@@H]2CC(=O)N(C)[C@@H](CC(C)C)C(=O)N(C)[C@H](Cc3nc(C(F)(F)F)no3)C(=O)N[C@H](Cc3ccccc3)COc3cc(C)c4ncccc4c3C(=O)N2)on1 [Example 909, (3S,7S,10R,13R)-13-benzyl-7-isobutyl-N-(2-(3-methoxyisoxazol-5-yl)ethyl)-6,9,17-trimethyl-1,5,8,11-tetraoxo-10-((3-(trifluoromethyl)-1,2,4-oxadiazol-5-yl)methyl)-1,2,3,4,5,6,7,8,9,10,11,12,13,14-tetradecahydro-[1]oxa[4,7,10,14]tetraazacycloheptadecino[16,17-f]quinoline-3-carboxamide]
5 | 477 | 423 | CCOCC[C@@H]1C(=O)N[C@H](Cc2ccccc2)COc2cc(C)nc(OC)c2C(=O)N[C@H](C(=O)NCCc2cc(C3CC3)no2)CC(=O)N(C)[C@@H](CC(C)C)C(=O)N1C [Example 910, (3R,6R,9S,13S)-3-benzyl-N-(2-(3-cyclopropylisoxazol-5-yl)ethyl)-6-(2-ethoxyethyl)-9-isobutyl-16-methoxy-7,10,18-trimethyl-5,8,11,15-tetraoxo-2,3,4,5,6,7,8,9,10,11,12,13,14,15-tetradecahydropyrido[3,4-p][1]oxa[4,7,10,14]tetraazacycloheptadecine-13-carboxamide]
6 | 531 | 341 | COc1noc(CCNC(=O)[C@@H]2CC(=O)N(C)[C@@H](CC(C)C)C(=O)N(C)C3(CC3)C(=O)N[C@H](Cc3ccccc3)COc3ccc4ncc(F)cc4c3C(=O)N2)n1 [Example 911, (3′S,7′S,13′R)-13′-benzyl-20′-fluoro-7′-isobutyl-N-(2-(3-methoxy-1,2,4-oxadiazol-5-yl)ethyl)-6′,9′-dimethyl-1′,5′,8′,11′-tetraoxo-2′,3′,4′,5′,6′,7′,8′,9′,11′,12′,13′,14′-dodecahydro-1′H-spiro[cyclopropane-1,10′-[1]oxa[4,7,10,14]tetraazacycloheptadecino[16,17-f]quinoline]-3′-carboxamide]
7 | 272 | 332 | COc1cc(CCNC(=O)[C@@H]2CC(=O)N(C)[C@@H](CC(C)C)C(=O)N3CCCC[C@@H]3C(=O)N[C@H](Cc3ccccc3)COc3ccc4ncccc4c3C(=O)N2)on1 [Example 912, (9S,13S,19aR,22R)-22-benzyl-13-isobutyl-N-(2-(3-methoxyisoxazol-5-yl)ethyl)-12-methyl-7,11,14,20-tetraoxo-7,8,9,10,11,12,13,14,17,18,19,19a,20,21,22,23-hexadecahydro-16H-pyrido[2′,1′:6,7][1]oxa[4,7,10,14]tetraazacycloheptadecino[16,17-f]quinoline-9-carboxamide]
8 | 294 | 390 | CCOCC[C@@H]1C(=O)N[C@H](Cc2ccccc2)COc2ccc3cnc(C)cc3c2C(=O)N[C@H](C(=O)NCCc2cc(OC)no2)CC(=O)N(C)[C@@H](CC(C)C)C(=O)N1C [Example 913, (3S,7S,10R,13R)-13-benzyl-10-(2-ethoxyethyl)-7-isobutyl-N-(2-(3-methoxyisoxazol-5-yl)ethyl)-6,9,20-trimethyl-1,5,8,11-tetraoxo-1,2,3,4,5,6,7,8,9,10,11,12,13,14-tetradecahydro-[1]oxa[4,7,10,14]tetraazacycloheptadecino[16,17-f]isoquinoline-3-carboxamide]
9 | 368 | 358 | CCOCC[C@@H]1C(=O)N[C@H](Cc2ccccc2)COc2ccc3cnc(C)cc3c2C(=O)N[C@H](C(=O)NCCc2nc(OC)no2)CC(=O)N(C)[C@@H](CC(C)C)C(=O)N1C [Example 914, (3S,7S,10R,13R)-13-benzyl-10-(2-ethoxyethyl)-7-isobutyl-N-(2-(3-methoxy-1,2,4-oxadiazol-5-yl)ethyl)-6,9,20-trimethyl-1,5,8,11-tetraoxo-1,2,3,4,5,6,7,8,9,10,11,12,13,14-tetradecahydro-[1]oxa[4,7,10,14]tetraazacycloheptadecino[16,17-f]isoquinoline-3-carboxamide]
10 | 334 | 361 | CCOCC[C@@H]1C(=O)N[C@H](Cc2ccccc2)COc2ccc3cnc(C)cc3c2C(=O)N[C@H](C(=O)NCCn2nnc(C3CC3)n2)CC(=O)N(C)[C@@H](CC(C)C)C(=O)N1C [Example 915, (3S,7S,10R,13R)-13-benzyl-N-(2-(5-cyclopropyl-2H-tetrazol-2-yl)ethyl)-10-(2-ethoxyethyl)-7-isobutyl-6,9,20-trimethyl-1,5,8,11-tetraoxo-1,2,3,4,5,6,7,8,9,10,11,12,13,14-tetradecahydro-[1]oxa[4,7,10,14]tetraazacycloheptadecino[16,17-f]isoquinoline-3-carboxamide]
11 | 196 | 470 | COc1noc(CCNC(=O)[C@@H]2CC(=O)N(C)[C@@H](CC(C)C)C(=O)N(C)[C@H](Cc3nc(-c4ccc(F)cn4)no3)C(=O)N[C@H](Cc3ccccc3)COc3ccc4ncc(F)cc4c3C(=O)N2)n1 [Example 916, (3S,7S,10R,13R)-13-benzyl-20-fluoro-10-((3-(5-fluoropyridin-2-yl)-1,2,4-oxadiazol-5-yl)methyl)-7-isobutyl-N-(2-(3-methoxy-1,2,4-oxadiazol-5-yl)ethyl)-6,9-dimethyl-1,5,8,11-tetraoxo-1,2,3,4,5,6,7,8,9,10,11,12,13,14-tetradecahydro-[1]oxa[4,7,10,14]tetraazacycloheptadecino[16,17-f]quinoline-3-carboxamide]
12 | 487 | 398 | COc1noc(CCNC(=O)[C@@H]2CC(=O)N(C)[C@@H](CC(C)C)C(=O)N(C)[C@H](Cc3nc(-c4ccc(F)cn4)no3)C(=O)N[C@H](Cc3ccccc3)COc3ccc4cnc(C)cc4c3C(=O)N2)n1 [Example 917, (3S,7S,10R,13R)-13-benzyl-10-((3-(5-fluoropyridin-2-yl)-1,2,4-oxadiazol-5-yl)methyl)-7-isobutyl-N-(2-(3-methoxy-1,2,4-oxadiazol-5-yl)ethyl)-6,9,20-trimethyl-1,5,8,11-tetraoxo-1,2,3,4,5,6,7,8,9,10,11,12,13,14-tetradecahydro-[1]oxa[4,7,10,14]tetraazacycloheptadecino[16,17-f]isoquinoline-3-carboxamide]
13 | 42 | 462 | COc1noc(CCNC(=O)[C@@H]2CC(=O)N(C)[C@@H](CC(C)C)C(=O)N(C)[C@H](Cc3nc(C(F)(F)F)no3)C(=O)N[C@H](Cc3ccccc3)COc3ccc4cnc(C)cc4c3C(=O)N2)n1 [Example 918, (3S,7S,10R,13R)-13-benzyl-7-isobutyl-N-(2-(3-methoxy-1,2,4-oxadiazol-5-yl)ethyl)-6,9,20-trimethyl-1,5,8,11-tetraoxo-10-((3-(trifluoromethyl)-1,2,4-oxadiazol-5-yl)methyl)-1,2,3,4,5,6,7,8,9,10,11,12,13,14-tetradecahydro-[1]oxa[4,7,10,14]tetraazacycloheptadecino[16,17-f]isoquinoline-3-carboxamide]
14 | 104 | 443 | COc1noc(CCNC(=O)[C@@H]2CC(=O)N(C)[C@@H](CC(C)C)C(=O)N(C)[C@H](Cc3nc(C(F)(F)F)no3)C(=O)N[C@H](Cc3ccccc3)COc3cc(C)nc(OC)c3C(=O)N2)n1 [Example 919, (3R,6R,9S,13S)-3-benzyl-9-isobutyl-16-methoxy-N-(2-(3-methoxy-1,2,4-oxadiazol-5-yl)ethyl)-7,10,18-trimethyl-5,8,11,15-tetraoxo-6-((3-(trifluoromethyl)-1,2,4-oxadiazol-5-yl)methyl)-2,3,4,5,6,7,8,9,10,11,12,13,14,15-tetradecahydropyrido[3,4-p][1]oxa[4,7,10,14]tetraazacycloheptadecine-13-carboxamide]
15 | 175 | 380 | COc1noc(CCNC(=O)[C@@H]2CC(=O)N(C)[C@@H](CC(C)C)C(=O)N3CCCC[C@@H]3C(=O)N[C@H](Cc3ccccc3)COc3cc(C)c4ncccc4c3C(=O)N2)n1 [Example 920, (9S,13S,19aR,22R)-22-benzyl-13-isobutyl-N-(2-(3-methoxy-1,2,4-oxadiazol-5-yl)ethyl)-2,12-dimethyl-7,11,14,20-tetraoxo-7,8,9,10,11,12,13,14,17,18,19,19a,20,21,22,23-hexadecahydro-16H-pyrido[2′,1′:6,7][1]oxa[4,7,10,14]tetraazacycloheptadecino[16,17-f]quinoline-9-carboxamide]
